US20260159536A1, “AKR1C3-ACTIVATED DNA ALKYLATING AGENT, AND MEDICAL APPLICATION THEREOF” (ASCENTAWITS PHARMACEUTICALS, LTD., priority 2021, published 2026)

How the values were obtained:
[1] = system: HuPrime model LI6643 human liver cancer; test: In vivo pharmacodynamics, liver cancer LI6643 PDX model (Compound A, Sorafenib; section 4.8); parameters: species or system BALB/c nude mice
Description: Experiment Instruction: BALB/c nude mice were subcutaneously inoculated with HuPrime® model LI6643 tumor blocks to establish a subcutaneous transplantation tumor model of human liver cancer. […] The efficacy was evaluated according to the relative tumor inhibition rate TGI (%), and the safety was evaluated according to the change in body weight and the death of the animals.

[2] = Chiral stability under long-term and accelerated storage conditions; format: physicochemical
Description: Isomer stability under long-term and accelerated conditions was studied.
Compound A and isomers A-P1 and A-P2 were investigated for traits and isomeric stability at −20±5° C., 5° C.±3° C., 25° C.±2° C. (60%±5% RH) and 40° C.±2° C.

[3] = system: MHCC97H; test: Cytotoxicity on hepatocellular carcinoma cell line MHCC97H; format: cell-based
Description: (§1) If not otherwise specified, IC50 values were measured by the following experimental methods:
(§2) a) Cells were plated for 24 hours, and then the compounds acted singly. 99 μL of growth medium was supplemented per well, and then 1 μL of 200× compound was added, gently shaken to ensure uniform mixing, and then placed in a 37° C., 5% CO2 incubator.
(§3) b) The cell plate was placed in the incubator for 72 hours.
(§4) b) 100 μL of CTG reagent (CelltiterGlo kit) was added to each well, the plate was placed in a rapid oscillator and shaken for 2 minutes, and then placed at room temperature for 30 minutes away from light.
(§5) The IC50 was calculated using GraphPad Prism 8 software and the IC50 (half inhibitory concentration) of the compounds was obtained using the following non-linear fitting formula: […]
(§6) Using the same experimental methods as described above, Compounds A, B and C were further tested for cytotoxicity against different hepatocellular carcinoma (HCC) cell lines SNU354, SNU886, MHCC97H and huH-1, and the results were shown in Table 2 below: […]

[4] = system: SNU886; test: Cytotoxicity on hepatocellular carcinoma cell line SNU886; format: cell-based
Description: as §1, §2, §3, §4, §5, §6

[5] = Plasma stability test, human; format: in vitro ADME; settings: 37° C.
Description: (§7) The pH of the plasma was checked and recorded. Note: a.
(§8) The final concentration of solvent was 0.5%.
(§9) The assay was performed in duplicate. […] The tubes were mixed by vortex for 5 minutes.

[6] = Plasma stability test, rat; format: in vitro ADME; settings: 5 μM, 37° C.
Description: as §7, §8, §9

[7] = 5 mg/kg, QDx5, 2 days off, 2 weeks off, QDx5, i.p., Day 35
[8] = 10 mg/kg, QWx2, 1 week off, QWx2, i.v., Day 35
[9] = 25° C. ± 2° C./60% ± 5% RH, 6 months
[10] = 40° C. ± 2° C./75% ± 5% RH, 6 months

Compound: O=[N+]([O-])c1ccc(C(OP(=O)(N2CC2)N2CC2)C(F)(F)F)cc1Oc1ccc(-c2ccc(F)cc2)c(F)c1 (racemic) [Compound A]
- Tumor volume ([1]; 5 mg/kg i.p., Day 21): 40.93 mm^3
- Tumor volume ([1]; 5 mg/kg i.p., Day 25): 24.91 mm^3
- Tumor volume ([1]; 5 mg/kg i.p., Day 28): 21.48 mm^3
- Tumor volume ([1]; 5 mg/kg i.p., Day 32): 8.71 mm^3
- Tumor volume ([1]; 5 mg/kg i.p., Day 35): 7.12 mm^3
- Tumor volume ([1]; 5 mg/kg i.p., Day 39): 6.77 mm^3
- Tumor volume ([1]; 5 mg/kg i.p., Day 42): 5.57 mm^3
- Tumor volume ([1]; 5 mg/kg i.p., Day 46): 4.27 mm^3
- Tumor volume ([1]; 5 mg/kg i.p., Day 49): 4.12 mm^3
- Tumor volume ([1]; 5 mg/kg i.p., Day 53): 3.81 mm^3
- Relative tumor volume (x ± S) [1, 7]: 0.05 ± 0.05
- T/C (%) [1, 7]: 0.34%
- TGI (%) [1, 7]: 99.66%
- Tumor volume (x ± S) [1, 7]: 7.12 ± 7.12
- Tumor volume ([1]; 10 mg/kg i.v., Day 0): 126.11 mm^3
- Tumor volume ([1]; 10 mg/kg i.v., Day 4): 160.85 mm^3
- Tumor volume ([1]; 10 mg/kg i.v., Day 7): 216.99 mm^3
- Tumor volume ([1]; 10 mg/kg i.v., Day 11): 94.21 mm^3
- Tumor volume ([1]; 10 mg/kg i.v., Day 14): 72.94 mm^3
- Tumor volume ([1]; 10 mg/kg i.v., Day 18): 59.48 mm^3
- Tumor volume ([1]; 10 mg/kg i.v., Day 21): 25.80 mm^3
- Tumor volume ([1]; 10 mg/kg i.v., Day 25): 21.28 mm^3
- Tumor volume ([1]; 10 mg/kg i.v., Day 28): 10.93 mm^3
- Tumor volume ([1]; 10 mg/kg i.v., Day 32): 7.11 mm^3
- Tumor volume ([1]; 10 mg/kg i.v., Day 35): 0.00 mm^3
- Tumor volume ([1]; 10 mg/kg i.v., Day 39): 0.00 mm^3
- Tumor volume ([1]; 10 mg/kg i.v., Day 42): 0.00 mm^3
- Tumor volume ([1]; 10 mg/kg i.v., Day 46): 0.00 mm^3
- Tumor volume ([1]; 10 mg/kg i.v., Day 49): 0.00 mm^3
- Tumor volume ([1]; 10 mg/kg i.v., Day 53): 0.00 mm^3
- Relative tumor volume (x ± S) [1, 8]: 0 ± 0
- T/C (%) [1, 8]: 0.00%
- TGI (%) [1, 8]: 100.00%
- Tumor volume (x ± S) [1, 8]: 0 ± 0
- toxic side effects (body weight change) ([1]; 1.25, 2.5, 5, 10 mg/kg): without toxic side effects
- Isomer peak A-P1 ([2]; 0 month): 49.8%
- Isomer peak A-P2 ([2]; 0 month): 50.2%
- Isomer peak A-P1 ([2]; 5° C. ± 3° C., 6 months): 49.9%
- Isomer peak A-P2 ([2]; 5° C. ± 3° C., 6 months): 50.1%
- Isomer transformation ([2]; 5° C. ± 3° C., 6 months): 0.1%
- properties and chirality after storage ([2]; 5° C., 25° C./60% RH, 40° C./75% RH, 6 months): essentially unchanged
- Isomer peak A-P1 [2, 9]: 49.9%
- Isomer peak A-P2 [2, 9]: 50.1%
- Isomer transformation [2, 9]: 0.1%
- Isomer peak A-P1 [2, 10]: 49.9%
- Isomer peak A-P2 [2, 10]: 50.1%
- Isomer transformation [2, 10]: 0.1%
- IC50 ([3]; Homo sapiens): 396 nM
- ratio A/B ([3]; IC50 ratio): 1.63
- ratio A/C ([3]; IC50 ratio): 0.70
- ratio A/B ([4]; IC50 ratio): 1.66
- ratio A/C ([4]; IC50 ratio): 0.75
- IC50 ([4]; SNU-886): 628 nM
- Percentage remaining after 2 hours in plasma ([5]; Human plasma, 5 μM): 60.06%
- remained in plasma after 2 hours ([5]; human plasma): 60.06%
- Percentage remaining after 2 hours in plasma [6]: 33.03%
